Data as given in US20220175750A1, “SUSTAINED RELEASE FORMULATION FOR LOCAL DELIVERY OF CDK9 INHIBITORS” (The Regents of the University of California, priority 2019, published 2022).

Assays:
[1] = Microparticle drug loading / loading efficiency; assay type: physicochemical; details: for incorporation of inhibitor (adequacy): PLGA
Procedure: (§1) FIG. 6: Flavopiridol was encapsulated at 1% w/v ratio in PLGA microparticles (MPs) synthesized using Purasorb® PDLG 5004A (Corbion) in methylene chloride at 20% w/v ratio and vortexed vigorously for 30 seconds after addition of polyvinyl alcohol (10%) at 2:1 ratio. The solution was then added dropwise to 1% PVA and mixed overnight, with 3× washes next day and lyophilized overnight. […] FIG. 6B: Linear standard curve for different concentrations of flavopiridol in solution of dissolved PLGA in DMSO acquired with Nanodrop 2000 Spectrophotometer at 274 nm. […] FIG. 6D: SEM image of flavopiridol MPs using a Phillips XL30 Microscope.
Preparation of poly(lactic-co-glycolic) acid (PLGA) or polycaprolactone (PCL) particles with CDK9 inhibitors was performed using a single emulsion-solvent evaporation technique. Briefly, 500 mg of PLGA or PCL was dissolved in 2.5 mL of 2% v/v dimethylsulfoxide in methylene chloride (for PLGA) or chloroform (for PCL). […] The solutions were vortexed at full speed (30 seconds for PLGA or 45 seconds for PCL) to form microparticles. The microparticle suspensions were transferred to 150 mL of 1% poly(vinyl alcohol), and stirred for 24 hours. The particles were pelleted, washed with water, lyophilized and stored at −20° C. for further use. Size distribution was measured using an AccuSizer model 770 optical particle sizer (Particle Sizing Systems).
For example, SNS-032 has a 30.7% loading efficiency, such that of the 2 g of starting SNS-032, about 0.61 g was encapsulated in the PLGA microparticles. Lower amounts of drug encapsulation result in less inhibitor per microparticle. If the loading efficiency decreases below a certain threshold, the amount of microparticles required to deliver a therapeutic dose of the CDK9 inhibitor can become prohibitive (for cost, efficiency, injection volume, and potentially, an adverse reaction of the treated subject to the administered microparticles).

[2] = In vitro release of CDK9 inhibitor from microparticles in PBS-Tween; assay type: physicochemical; details: PLGA
Procedure: as §1
Flavopiridol release from the particles was quantified over 42 days in PBS-Tween®, by absorbance at 247 nm.
(B) Release: The release characteristics of the microparticles prepared above were determined using the procedure set forth in Example 2.

[3] = as above; assay type: physicochemical; details: PCL
[4] = test system: NFκB target genes; assay: Gene expression in primary human chondrocytes treated with IL-1β with or without flavopiridol; assay type: cell-based
Source text: CDK9 inhibition effectively suppresses the transcription of primary inflammatory response genes.
CDK9 inhibitors exert effects on the inflammatory response pathway.

[5] = test system: ACL-rupture in mice; assay: Primary response gene mRNA expression after ACL-rupture knee injury, systemic flavopiridol; assay type: in vivo

% loading efficiency ([1]; PCL microparticles)	% loading efficiency ([1]; PLGA microparticles)	% release ([2]; Day 1)	% release ([2]; Day 3)	% release ([2]; Day 5)	% release ([3]; Day 3)	% release ([3]; Day 7)	amount encapsulated in the PLGA microparticles ([1]; of the 2 g of starting SNS-032)	incorporation of inhibitor (adequacy) [1]	incorporation of inhibitor (adequacy) ([1]; listed as dinaciclib)	Compound	average magnitude of repression (of maximum induction) of IL-1β-induced genes ([4]; 300 nM flavopiridol, 10 ng/mL IL-1β, 5 hours)	number of IL-1β-induced genes repressed by flavopiridol co-treatment ([4]; of 67 genes induced by IL-1β (84 NFκB target genes tested))	repeated versus single administration (IL-1β, IL-6 gene expression) ([5]; 0, 1, or 2 administrations)	mRNA expression of pro-inflammatory cytokines IL-1β and IL-6 at the injured site ([5]; 4-8 hours post-injury, intraperitoneal injection)	window after injury during which flavopiridol is effective at preventing transcription of primary response genes ([5]; delay before administration)	house-keeping gene 18S rRNA, Collagen Type 2 and aggrecan expression ([5]; mouse, in vivo)
1.1%	59.9%	3.4%	4.8%	6.5%	0.36%	0.43%				Voruciclib						
										CN1CC[C@H](c2c(O)cc(O)c3c(=O)cc(-c4ccccc4Cl)oc23)[C@H](O)C1 [flavopiridol, 2-(2-chlorophenyl)-5,7-dihydroxy-8-[(3S,4R)-3-hydroxy-1-methyl-4-piperidinyl]-4-chromenone]	> 86%	59	more effective than a single administration	effectively and selectively suppressed	at least 3 hours	not affected
0.3%	30.7%	4.0%	5.4%	7.0%	0%	0%	about 0.61 g			CC(C)(C)c1cnc(CSc2cnc(NC(=O)C3CCNCC3)s2)o1 [SNS-032]						
								not encapsulated effectively	failed to incorporate an adequate amount	CCc1cnn2c(NCc3ccc[n+]([O-])c3)cc(N3CCCC[C@H]3CCO)nc12 [Dinaciclib]						
